What follows are compounds tested on Enzyme from the LM NRRL-B-21297 strain (assay: Suitability of acceptors: oligosaccharide formation from sucrose and acceptor). Conditions: 0.4% by weight each of sucrose and acceptor, pH 6, 2 hours at 37° C.; DP3-DP7 minus starting material.
Assay type: biochemical, Leuconostoc mesenteroides
Method: Enzyme from the LM NRRL-B-21297 strain was tested to determine the suitability of various acceptors. Enzyme was prepared using the methods described herein.
In determining the suitability of the preparation of the sucrose/acceptor products, 0.4% by weight of each sucrose and acceptor were mixed with enzyme solution in 0.01 M sodium gluconate buffer, pH 6, and the reaction proceeded for 2 hours at 37° C.
The carbohydrate profiles of products generated by the enzyme reactions with the blends of sucrose and syrups and syrup solids herein, were analyzed by high performance liquid chromatography (HPLC) using two (2) Bio-Rad Aminex HPX42A carbohydrate columns (300 mm×7.8 mm) available from Bio-Rad, Hercules, Calif., in succession, with water as the eluate at 0.2 ml/min, at a temperature of 65° C.
The reaction rate was estimated based on the amount of oligosaccharides generated from each acceptor and normalized against the fructose concentration in each reaction. The results are reported below in Table 2.0. The values reported for oligosaccharides to fructose are for DP3-DP7 minus starting material.

Q: Which “Weight Ratio of Oligosaccharide to Fructose” value (“Weight Ratio” below) does the source give for `OC[C@H]1O[C@H](OC[C@H]2OC(O)[C@H](O)[C@@H](O)[C@@H]2O)[C@H](O)[C@@H](O)[C@@H]1O` (stereo partly drawn) [Isomaltose] here?
A: 0.93

Q: With Maltotriose as the compound, how does the “Weight Ratio” value read?
A: 0.53

Q: With `OC[C@H]1O[C@H](OC[C@H]2O[C@H](O[C@H]3[C@H](O)[C@@H](O)C(O)O[C@@H]3CO)[C@H](O)[C@@H](O)[C@@H]2O)[C@H](O)[C@@H](O)[C@@H]1O` (stereo partly drawn) [Panose] as the compound, how does the “Weight Ratio” value read?
A: 1.56

Q: Which “Weight Ratio” value does the source give for `OC[C@H]1O[C@H](O[C@H]2[C@H](O)[C@@H](O)C(O)O[C@@H]2CO)[C@H](O)[C@@H](O)[C@@H]1O` (mixture of isomers) [Maltose, reference compound] here?
A: 2.02

Q: With `OC[C@H]1O[C@H](O[C@H]2[C@H](O)[C@@H](O)[C@@H](O[C@H]3[C@H](O)[C@@H](O)[C@@H](O[C@H]4[C@H](O)[C@@H](O)C(O)O[C@@H]4CO)O[C@@H]3CO)O[C@@H]2CO)[C@H](O)[C@@H](O)[C@@H]1O` (stereo partly drawn) [Maltotetrose] as the compound, how does the “Weight Ratio” value read?
A: 0.38

Same assay, conditions: compared with the acceptors of Table 2.0, two hour reaction time

Q: How did the suitability as acceptor turn out when `O[C@H]1[C@H](O)[C@@H](O)[C@H](O)[C@@H](O)[C@H]1O` [myo-inositol] was run?
A: not as effective acceptors

Q: `O=C[C@@H](O)[C@H](O)[C@H](O)CO` [arabinose] was tested. Which suitability as acceptor did it give?
A: not as effective acceptors

Q: For `O=C[C@H](O)[C@@H](O)[C@H](O)CO` [xylose], which suitability as acceptor is on record?
A: not as effective acceptors

The compounds below were run on rat intestinal powder (assay: In vitro digestibility assay using rat intestinal powder). Conditions: in 4 hours.
Assay type: in vitro ADME
Method: The results provided in this example are derived from in vitro digestibility assays using rat intestinal powder available from Sigma/Aldrich, Saint Louis, Mo., Catalog Number I-1630). […] Free glucose concentration in the reaction mixture was analyzed over time by the HPLC method described above.

Q: With `OC[C@H]1O[C@H](O[C@H]2[C@H](O)[C@@H](O)C(O)O[C@@H]2CO)[C@H](O)[C@@H](O)[C@@H]1O` (mixture of isomers) [Maltose, reference compound] as the compound, how does the digested read?
A: 88%

From patent publication US8512739B2, “Use of low-glycemic sweeteners in food and beverage compositions” (Cargill, Incorporated, priority 2002, dated 2013)
